Experimental findings from PubChem BioAssay AID1996 are described below.

≈ marks a conversion by molar mass, not a printed value.

The conditions of this data set: buffer; pH 7.4; 200.0 µM.
Turning to `O=S1(=O)N=C(c2ccccc2)c2ccccc21`, the kinetic solubility (commonly solubility judged after dilution from a stock solution rather than from solid) is 0.0347 mg/mL (≈ 143 µM). For `COc1ccc(NC(=O)c2ccc(NC(=O)CN3CCN(c4ccccc4)CC3)cc2)cc1` the value was 0.0014 mg/mL (≈ 3.15 µM). For `COc1cc(OC)c(C(=O)OCC(=O)c2ccc3c(c2)NC(=O)CO3)cc1OC` the value was 0.0049 mg/mL (≈ 12.2 µM); for `O=C(OC(C(=O)NC1CCCCC1)c1ccccc1F)c1ccco1` (stereo not given), 0.0416 mg/mL (≈ 120 µM); for `O=C(c1cc2ccccc2cc1O)N1CCCC1`, more than 0.0362 mg/mL.

`O=C(NC12CC3CC(CC(C3)C1)C2)N(Cc1ccccc1)Cc1ccncc1` yielded a kinetic solubility of 0.0062 mg/mL (≈ 16.5 µM). To `CCOC(=O)Cn1nc(C)c([N+](=O)[O-])c1C` belongs more than 0.0341 mg/mL. For `COc1ccc(OCCn2cnc3ccccc32)cc1` the value was more than 0.0402 mg/mL; for `COc1ccc(CC(=O)N2CCN(c3ccc(F)cc3)CC2)cc1`, 0.0383 mg/mL (≈ 117 µM); for `Nc1nc2ccccc2[nH]1`, more than 0.02 mg/mL. To `O=C1OCCC1Sc1nnc(-c2ccco2)n1-c1ccccc1` (stereo not given) belongs more than 0.0491 mg/mL. On to `CCOC(=O)CN1C(=O)CCSc2ccc(Cl)cc21`, for which the kinetic solubility is more than 0.045 mg/mL. `CCOC(=O)c1ccc(NC(=O)c2cc(F)c(F)cc2Cl)cc1`: the solubility (kinetic) is less than 0.0007 mg/mL. To `CN(C)c1ccc(C(=O)OCC(=O)c2ccc[nH]2)cc1` belongs 0.0078 mg/mL (≈ 28.6 µM); to `CNC(=S)NCCc1c[nH]c2ccc(OC)cc12`, more than 0.0395 mg/mL; to `CSc1ccccc1C(=O)N(C)Cc1ccccc1`, more than 0.0407 mg/mL. For `CCCN(CCO)C1CCN(CCc2ccccc2)CC1` the value was 0.0274 mg/mL (≈ 94.3 µM). For `CC(C)C(OC(=O)c1cccs1)C(=O)NCCc1ccccc1` (stereo not given) the value was 0.0458 mg/mL (≈ 138 µM); for `O=C(O)/C=C/C(=O)NC1CC1`, more than 0.0233 mg/mL. As to `CCCCc1ncc(CN2CCN(Cc3ccc(C)cc3)C(CCO)C2)[nH]1` (stereo not given), the solubility (kinetic) was determined as 0.0491 mg/mL (≈ 133 µM). With `Cc1ccccc1OCC(=O)Nc1ccc([N+](=O)[O-])cc1`, the solubility (kinetic) came out at 0.0004 mg/mL (≈ 1.4 µM). For `O=Cc1ccc(C(=O)OCC(=O)Nc2ccc(F)cc2F)cc1` the value was 0.0037 mg/mL (≈ 11.6 µM); for `O=Cc1cccn1-c1ccc2ccccc2c1`, 0.015 mg/mL (≈ 67.8 µM); for `CCOc1ccc(NC(=O)c2cc(OC)nc3ccccc23)cc1`, 0.0006 mg/mL (≈ 1.86 µM). With `COc1ccc(-c2cc(C(=O)Nc3ccc(C)c(C)c3)no2)cc1`, the solubility (kinetic) was less than 0.0003 mg/mL.

In the case of `Cl.O=[N+]([O-])c1ccccc1OCC(O)CNC1CCCC1` (stereo not given), the kinetic solubility was determined as 0.0462 mg/mL. With `CCCCOc1ccc(CN=C(N)N)cc1Cl`, the solubility (kinetic) is more than 0.0384 mg/mL. To `CCN(C(=O)CN1CCC(C(=O)OC)CC1)c1c(N)n(Cc2ccccc2)c(=O)[nH]c1=O` belongs more than 0.0665 mg/mL; to `COC(=O)c1ccc(COc2ccc(C#N)cc2)o1`, 0.007 mg/mL (≈ 27.2 µM); to `O=C(NCCOc1ccccc1)c1ccccc1Cl`, more than 0.0414 mg/mL.

Consider `Cc1cnc(C(=O)OCC(=O)N=c2sccn2Cc2ccccc2Cl)cn1`, for which the kinetic solubility was determined as 0.0552 mg/mL (≈ 137 µM). To `C=CCOc1nc2sc(C)c(C)c2c(=O)n1-c1ccccc1` belongs 0.0461 mg/mL (≈ 148 µM). With `O=C(COc1ccc(Br)cc1)N1CCNC1=O`, the solubility (kinetic) was more than 0.0449 mg/mL. In turn, `O=[N+]([O-])c1ccc2c(c1)nc1n2CCN(c2ccccc2)C1` returned a kinetic solubility of 0.0068 mg/mL (≈ 23.1 µM). For `C=CCn1c(=O)c(C(=O)Nc2cc(C)ccn2)c(O)c2ccccc21` the value was less than 0.0002 mg/mL. For `CSc1ncccc1C(=O)NCCc1ccccc1F` the value was more than 0.0436 mg/mL; for `C=CCNC(=O)c1ccccc1NC(=O)C1CC(=O)N(C(C)C)C1` (stereo not given), more than 0.0494 mg/mL; for `Cc1cc(S(=O)(=O)NCCN2CCOCC2)ccc1Cl`, more than 0.0478 mg/mL. For `O=S(=O)(Nc1ccc(Nc2ccccc2)cc1)c1ccc(F)cc1` the value was 0.0035 mg/mL (≈ 10.2 µM); for `NS(=O)(=O)c1ccc(NC(=O)COC(=O)C2CC2)cc1`, more than 0.0447 mg/mL. Compound `O=C(COc1ccccc1)NS(=O)(=O)c1ccccc1` showed a kinetic solubility of 0.0381 mg/mL (≈ 131 µM). To `Cc1ccc[n+](CC(=O)N2CCCCC2)c1C.[Br-]` belongs more than 0.047 mg/mL; to `CC(=O)c1ccc(S(=O)(=O)NC2CCCCCCC2)cc1`, 0.0451 mg/mL (≈ 146 µM). To `O=C(CN1CCCC1)Nc1cc(C(F)(F)F)ccc1Cl` belongs 0.0181 mg/mL (≈ 59 µM); to `CC1(C)OCC(COC(=O)Nc2cccnc2)([N+](=O)[O-])CO1`, 0.0398 mg/mL (≈ 128 µM); to `O=C(CCNC(=O)c1ccccc1Cl)OCC(=O)c1ccccc1`, more than 0.0519 mg/mL. Turning to `N#CCc1nc2ccccc2c(=O)[nH]1`, the kinetic solubility was more than 0.0278 mg/mL. To `CCCCCn1c(=O)c(C(=O)Nc2ccccc2N)c(O)c2ccccc21` belongs less than 0.0003 mg/mL; to `Cc1ccc(CNC(=O)COC(=O)c2cccnc2Cl)cc1`, 0.0237 mg/mL (≈ 74.4 µM). To `CN(C)Cc1ccccc1CCc1ccccc1.Cl` belongs 0.0239 mg/mL; to `Cl.OCCN1CCN(CC/C=C2/c3ccccc3Sc3ccc(C(F)(F)F)cc32)CC1`, 0.0601 mg/mL; to `COc1ccccc1NC(=O)NCCc1ccccc1`, more than 0.0405 mg/mL.

Consider `CCn1c(SCC(=O)NC(C)(C)C)nnc1-c1ccncc1`, for which the solubility (kinetic) was more than 0.0479 mg/mL.

In turn, `CN(C)Cc1c(-c2ccc(Cl)cc2)nc2ccccn12` gave a kinetic solubility of 0.0404 mg/mL (≈ 141 µM).

Regarding `CCCC(=O)NC(=S)c1c(C)n(C)n(-c2ccccc2)c1=O`, the kinetic solubility was more than 0.0476 mg/mL. To `O=C(CCNC(=O)c1ccco1)Nc1ccc(F)c(Cl)c1` belongs 0.0171 mg/mL (≈ 55 µM); to `CSc1ccc(C2NC(=O)c3ccccc3N2)cc1` (stereo not given), 0.0026 mg/mL (≈ 9.62 µM); to `O=C(COC(=O)CCc1c[nH]c2ccccc12)Nc1ccccc1`, 0.0045 mg/mL (≈ 14 µM). To `Cc1nc(-c2ccc(NC(=O)c3ccc(Br)o3)cc2)cs1` belongs less than 0.0004 mg/mL.

`Cc1[nH]c(=O)c(C#N)c(C)c1Cl` had a kinetic solubility of 0.026 mg/mL (≈ 142 µM).

On to `Oc1ccccc1C=NCCCCCCN=Cc1ccccc1O`, for which the kinetic solubility is 0.0474 mg/mL (≈ 146 µM). To `O=C(Nc1ccccn1)c1ccc(C(=O)c2ccccc2)cc1` belongs 0.0216 mg/mL (≈ 71.4 µM); to `CC(=O)c1cn(C2OC(CO)C3OC(C)(C)OC32)c(=O)n(C)c1=O` (stereo not given), 0.0489 mg/mL (≈ 144 µM); to `O=C(c1cc(-c2cccc(O)c2)on1)N1CCCC1`, 0.0326 mg/mL (≈ 126 µM).

`CC(C)c1nc(SCC(=O)Nc2cccc3ccccc23)n[nH]1` returned a solubility (kinetic) of more than 0.049 mg/mL. To `COc1ccccc1NCCC(=O)OCC(=O)Nc1ccccc1Cl` belongs more than 0.0544 mg/mL; to `CCn1cc(S(=O)(=O)Nc2ncccn2)cn1`, more than 0.038 mg/mL. For `CC(C)(C)C(=O)CSc1ncnc2sc3c(c12)CCC3` the value was 0.0007 mg/mL (≈ 2.28 µM); for `Cc1cc(C)c(C(=O)COC(=O)c2c(C)noc2C)cc1C`, 0.0071 mg/mL (≈ 23.6 µM); for `O=c1[nH]cccc1-c1nc2ccccc2n1Cc1cccc(Cl)c1`, 0.0014 mg/mL (≈ 4.17 µM). For `O=C(NC1(C(F)(F)F)OCCO1)c1ccc(F)cc1` the value was 0.0329 mg/mL (≈ 118 µM); for `Cl.Clc1cccc(OCCN2CCCC2)c1`, 0.0372 mg/mL; for `CC(OC(=O)COc1ccc(C#N)cc1)C(=O)c1ccccc1` (stereo not given), more than 0.0464 mg/mL. `COc1ccccc1N1CC(C(=O)NCC2COc3ccccc3O2)CC1=O` (stereo not given) yielded a kinetic solubility of more than 0.0574 mg/mL. To `Cc1ccc(NS(=O)(=O)c2cccc3nsnc23)cc1` belongs 0.036 mg/mL (≈ 118 µM); to `Cc1cccc2nc3c(nc12)-c1ccccc1C3=O`, 0.0005 mg/mL (≈ 2.03 µM); to `Cc1cccc(CC(=O)N2CCOCC2)c1`, more than 0.0329 mg/mL. In the case of `Cc1ccc(C(=O)N/C(=C/c2ccco2)C(=O)NCc2ccco2)cc1`, the solubility (kinetic) is more than 0.0526 mg/mL. For `O=C(/C=C/c1ccco1)NC(=S)Nc1cccc(C(=O)O)c1` the value was more than 0.0474 mg/mL; for `COC(=O)/C(=C\C(=O)c1ccc([N+](=O)[O-])cc1)Nc1ccc(OC)cc1`, less than 0.0004 mg/mL. Compound `CN1CCN(C(=O)c2ccc(-c3ccc(Br)cc3)o2)CC1` showed a solubility (kinetic) of more than 0.0524 mg/mL. To `NC(=S)Nc1c(Cl)cccc1Cl` belongs more than 0.0332 mg/mL. To `COc1cccc(C(=O)Nc2ccc(C(=O)c3ccccc3)cc2)c1` belongs 0.0074 mg/mL (≈ 22.3 µM). `O=C1Nc2ccccc2O/C1=C\c1ccccc1` yielded a kinetic solubility of 0.0012 mg/mL (≈ 5.06 µM). For `CC1CCCC(C)N1C(=O)COC(=O)CCC1CCCC1` (stereo not given) the value was 0.0301 mg/mL (≈ 102 µM); for `CC(C)N1CC(C(=O)Nc2cc(Cl)cc(Cl)c2)CC1=O` (stereo not given), more than 0.0473 mg/mL. For `CCOc1ccc(NC(=O)CNc2cccc(S(=O)(=O)N3CCCCCC3)c2)cc1OCC` the value was 0.0188 mg/mL (≈ 39.5 µM); for `Cc1ccc(/C=C2/SC(=O)NC2=S)o1`, 0.0311 mg/mL (≈ 138 µM). To `Cc1ccccc1OC(C)C(=O)Nc1ccc2c(c1)OCCO2` (stereo not given) belongs 0.0408 mg/mL (≈ 130 µM). Turning to `CC1CCN(S(=O)(=O)c2ccc3c(c2)n(C)c(=O)n3C)CC1`, the solubility (kinetic) is more than 0.0485 mg/mL. On to `O=C(O)c1cnc2[nH]c3ccccc3n2c1=O`, for which the solubility (kinetic) was more than 0.0344 mg/mL.

Consider `Cc1c(C=C2C(=O)NC(=O)NC2=O)c(=O)n(-c2ccccc2)n1C`, for which the solubility (kinetic) was more than 0.0489 mg/mL. To `O=S(=O)(Nc1cccc(S(=O)(=O)N2CCCCC2)c1)c1ccccc1F` belongs more than 0.0598 mg/mL.

On to `O=C(NC(=S)NNC(=O)c1cccs1)c1ccccc1`, for which the solubility (kinetic) was more than 0.0458 mg/mL. For `COc1ccc(C(=O)CCC(=O)Nc2ccc(Cl)cc2)cc1` the value was less than 0.0007 mg/mL; for `CCC(=O)Nc1ccc(C(=O)CSc2nc(N)cc(N)n2)cc1`, 0.0483 mg/mL (≈ 146 µM).

Turning to `COc1cc([N+](=O)[O-])ccc1NC(=O)Nc1cccnc1`, the kinetic solubility worked out at 0.001 mg/mL (≈ 3.47 µM). For `CCCCc1c(C)[nH]c2nc3ccccc3n2c1=O` the value was less than 0.0002 mg/mL. For `Cc1ccc(NC(=O)CCNC(=O)c2ccc(Cl)cc2)nc1` the value was 0.0168 mg/mL (≈ 52.9 µM); for `Cc1ccc(/C=C/C(=O)O)cc1S(=O)(=O)Nc1ccc(C(=O)O)cc1`, 0.0424 mg/mL (≈ 117 µM); for `O=C1CCc2ccc(NC(=O)C3CC3)cc2N1`, more than 0.0345 mg/mL. For `O=C(CCCSc1nc2ccccc2[nH]1)NC1CCCCC1` the value was more than 0.0476 mg/mL; for `CSc1ccccc1NC(=O)Nc1cccc(Cl)c1C`, 0.0005 mg/mL (≈ 1.63 µM); for `CN1CCC(N(C)S(=O)(=O)c2ccc(F)cc2F)CC1`, more than 0.0457 mg/mL. `Cc1ccc(NC(=O)CCC(=O)N2CCOCC2)nc1` had a solubility (kinetic) of more than 0.0416 mg/mL.
